Values quoted from earlier work as cited in patent US20040043403A1, “Process for determining the biological activity of epidermal growth factor receptor tyrosine kinase inhibitors” (priority 2000, published 2004).

Biological target: EGFR tyrosine kinase (Homo sapiens, UniProt P00533)
Details: disclosed in WO 97/02266; cited from earlier work

Sequence of EGFR tyrosine kinase (P00533 669-1210 limits assumed): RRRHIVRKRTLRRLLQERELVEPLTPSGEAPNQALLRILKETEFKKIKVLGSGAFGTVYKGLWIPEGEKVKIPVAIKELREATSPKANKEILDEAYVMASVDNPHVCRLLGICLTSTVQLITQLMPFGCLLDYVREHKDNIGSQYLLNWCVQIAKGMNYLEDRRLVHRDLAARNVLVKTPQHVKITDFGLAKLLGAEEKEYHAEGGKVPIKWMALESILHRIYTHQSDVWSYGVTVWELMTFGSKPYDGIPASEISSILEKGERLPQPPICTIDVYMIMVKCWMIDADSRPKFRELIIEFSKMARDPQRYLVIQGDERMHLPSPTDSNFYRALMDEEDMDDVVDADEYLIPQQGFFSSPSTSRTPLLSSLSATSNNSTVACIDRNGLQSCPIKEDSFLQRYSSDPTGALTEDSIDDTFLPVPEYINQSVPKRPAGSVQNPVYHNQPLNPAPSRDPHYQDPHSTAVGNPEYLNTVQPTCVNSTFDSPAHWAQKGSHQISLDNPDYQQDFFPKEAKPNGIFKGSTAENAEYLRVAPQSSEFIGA

SMILES: C[C@@H](Nc1ncnc2[nH]c(-c3ccc(O)cc3)cc12)c1ccccc1 [COMPOUND A, (R)-6-(4-hydroxy-phenyl)-4-[(1-phenyl-ethyl)-amino]-7H-pyrrolo[2,3-d]pyrimidine]
- Inhibition of the EGFR tyrosine kinase: potent and selective inhibitor
